In US9540343B2 (Gilead Sciences, Inc., priority 2011, dated 2017):

Assays:
in vitro = conditions: human, uninfected MT-4 cells, CC50 (nM), same protocol as Test A, CellTiter-Glo
Outline: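 Cytoprotection read-out: CellTiter-Glo chemiluminescence after 5 days at 37 °C of HIV-IIIb-infected MT-4 cells (m.o.i. 0.003) with compound in 10-point 3-fold dilutions, quadruplicate, 10% FBS. Cytotoxicity (CC50) measured identically without virus.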

HIV-IIIb = experiment: Test A: Antiviral assay in MT4 cells; type: cell-based, HIV-1; conditions: Human immunodeficiency virus 1, IIIB, MT4, 120 h, read-out: % inhibition at 2 μM, percent inhibition of virus-induced cell killing, from dose response curve at 2 uM drug; MT-4 cells infected with HIV-IIIb, 5 days, CellTiter-Glo

Row | Structure (SMILES) | CC50 at 5 days (in vitro) | inhibition at 2 µM (HIV-IIIb)
1 | CC(C)(C)OC(=O)N1C(=O)CC[C@H]1C(=O)N[C@@H](Cc1cc(F)cc(F)c1)c1ncccc1-c1ccc(F)c(C(N)=O)c1 [Example 140, (S)-tert-butyl 2-((S)-1-(3-(3-carbamoyl-4-fluorophenyl)pyridin-2-yl)-2-(3,5-difluorophenyl)ethylcarbamoyl)-5-oxopyrrolidine-1-carboxylate] | > 53000 nM | 0%
2 | NC(=O)c1cc(-c2cccnc2[C@H](Cc2cc(F)cc(F)c2)NC(=O)Cc2n[nH]c3ccc(C(F)(F)F)cc23)ccc1F [Example 141G, (S)-5-(2-(2-(3,5-difluorophenyl)-1-(2-(5-(trifluoromethyl)-1H-indazol-3-yl)acetamido)ethyl)pyridin-3-yl)-2-fluorobenzamide] | 21800 nM | 4%
3 | NC(=O)c1cc(-c2cccnc2[C@H](Cc2cc(F)cc(F)c2)NC(=O)Cn2nc(OCc3ncccn3)c3c2CCCC3)ccc1F [Example 142C, (S)-5-(2-(2-(3,5-difluorophenyl)-1-(2-(3-(pyrimidin-2-ylmethoxy)-4,5,6,7-tetrahydro-1H-indazol-1-yl)acetamido)ethyl)pyridin-3-yl)-2-fluorobenzamide] | > 53200 nM | 23%
4 | NC(=O)c1cc(-c2cccnc2[C@H](Cc2cc(F)cc(F)c2)NC(=O)Cn2nc3c(c2C(F)(F)OCc2ccccn2)CCCC3)ccc1F [Example 143, (S)-5-(2-(1-(2-(3-(difluoro(pyridin-2-ylmethoxy)methyl)-4,5,6,7-tetrahydro-2H-indazol-2-yl)acetamido)-2-(3,5-difluorophenyl)ethyl)pyridin-3-yl)-2-fluorobenzamide] | 19900 nM | 10%
5 | NC(=O)c1cccc(-c2cccnc2[C@H](Cc2cc(F)cc(F)c2)NC(=O)Cn2nc(C(F)(F)F)c3c2COCC3)c1 [Example 144, (S)-3-(2-(2-(3,5-difluorophenyl)-1-(2-(3-(trifluoromethyl)-4,5-dihydropyrano[3,4-c]pyrazol-1(7H)-yl)acetamido)ethyl)pyridin-3-yl)benzamide] | > 53000 nM | 89%
6 | CC(C)(C)OC(=O)N1C[C@H](OCc2ccccc2)C[C@H]1C(=O)N[C@@H](Cc1cc(F)cc(F)c1)c1ncccc1-c1ccc(F)c(C(N)=O)c1 [Example 145, (2S,4R)-tert-butyl 4-(benzyloxy)-2-((S)-1-(3-(3-carbamoyl-4-fluorophenyl)pyridin-2-yl)-2-(3,5-difluorophenyl)ethylcarbamoyl)pyrrolidine-1-carboxylate] | 22400 nM | 0%
7 | O=C(Cn1[nH]c(=O)c2c1CCCC2)N[C@@H](Cc1cc(F)cc(F)c1)c1ncccc1-c1ccc(Cl)cc1 [Example 146, (S)—N-(1-(3-(4-chlorophenyl)pyridin-2-yl)-2-(3,5-difluorophenyl)ethyl)-2-(3-oxo-2,3,4,5,6,7-hexahydro-1H-indazol-1-yl)acetamide] | 20600 nM | 66%
8 | NC(=O)c1cc(-c2cccnc2[C@H](Cc2cc(F)cc(F)c2)NC(=O)Cn2nc(-n3cccn3)ccc2=O)ccc1F [Example 147, (S)-5-(2-(2-(3,5-difluorophenyl)-1-(2-(6-oxo-3-(1H-pyrazol-1-yl)pyridazin-1(6H)-yl)acetamido)ethyl)pyridin-3-yl)-2-fluorobenzamide] | > 53200 nM | 10%
9 | CC(C)(C)OC(=O)N1C[C@@H](c2ccccc2)C[C@H]1C(=O)N[C@@H](Cc1cc(F)cc(F)c1)c1ncccc1-c1ccc(F)c(C(N)=O)c1 [Example 148, (2S,4R)-tert-butyl 2-((S)-1-(3-(3-carbamoyl-4-fluorophenyl)pyridin-2-yl)-2-(3,5-difluorophenyl)ethylcarbamoyl)-4-phenylpyrrolidine-1-carboxylate] | 12300 nM | 11%
10 | NC(=O)c1cc(-c2cccnc2[C@H](Cc2cc(F)cc(F)c2)NC(=O)Cn2ccnc2-c2ccccc2)ccc1F [Example 149, (S)-5-(2-(2-(3,5-difluorophenyl)-1-(2-(2-phenyl-1H-imidazol-1-yl)acetamido)ethyl)pyridin-3-yl)-2-fluorobenzamide] | > 53200 nM | 2%
